According to patent US4698355A, “Anti-hypertensive agents” (University of Miami, priority 1979, dated 1987):
Non-standard residues stand in square brackets, D forms with d. Residues, ends and D or L forms follow the SMILES beside them. No end group written: not given here. *: point of attachment. pGlu = O=C1CC[C@@H](C(=O)O)N1; Bz = O=C(c1ccccc1)*

Tests used:
ACE = settings: cited from earlier work
angiotensin I [1] = experiment: Oral effectiveness: blood pressure response to angiotensin I in anesthetized rats; format: in vivo, rat; settings: oral 20 μmol/kg
Method: (§1) Rats (210-290 g body weight) were fasted overnight and then anesthetized with intraperitoneal pentobarbital, 50-60 mg/kg. Tracheostomy was performed and the animals were ventilated mechanically. A cannula was inserted into a femoral vein for injection of angiotensin I, and a second cannula was inserted into a common carotid artery for direct measurement of arterial blood pressure. Heparin, 1,000 units, was injected via the femoral vein to prevent coagulation. Blood pressure was measured with a pressure transducer connected to a polygraph. The rats were injected with […] of angiotensin I in 20 μl of 0.9 g % NaCl; an amount of angiotensin I sufficient to raise mean arterial blood pressure by 38 mm Hg. After the responsiveness of a given rat to angiotensin I was established, the named compound at 20 μmol/kg (drug dissolved in 0.15 ml of H2 O plus 10 μl of 1 N NaHCO3), was given via a stomach tube. At timed intervals, the effects of 400 ng/kg of angiotensin I on mean arterial blood pressure were tested.

angiotensin I [2] = experiment: Intravenous effectiveness: blood pressure response to angiotensin I in anesthetized rats; format: in vivo, rat; settings: intravenous 2 μmol/kg
Method: as §1, with “tested. Results are shown below:” for “tested.”
Anesthetized rats were prepared as described in Example 18. After the control reponse to 400 ng/kg angiotensin I was measured for a given rat, the named compound was administered via a femoral vein. The dose was 2 μmol/kg of the named compound in 15 μl 0.01 N sodium bicarbonate. The results are shown as percent of the control response.

human urinary ACE = experiment: ACE activity assay (Benzoyl-GlyHisLeu substrate); format: biochemical; settings: 0.05 M Hepes pH 8.0, 37° C.
Description: The role of ACE in the pathogenesis of hypertension has prompted a search for inhibitors of the enzyme that could act as antihypertensive drugs. See for example U.S. Pat. Nos. 3,891,616, 3,947,575, 4,052,511 and 4,053,651. […] 6, 1977, and in scientific articles by Cushman, D. W. et al., Biochemistry 16, 5484 (1977), and by Ondetti, M. et al., Science 196, 441 (1977). […] These factors include the source of enzyme, its purity, the substrate used and its concentration, and the composition of the assay buffer. All I50 data reported herein have been performed with the same assay system and same enzyme (human urinary ACE) and with an approximately 1/2 Km level of substrate and are therefore internally consistent. Discrepancies with data obtained by other workers may be observed. Indeed such discrepancies do exist in the literature, for unknown reasons. See, for example, the I50 values for BPP9a reported by Cushman, D. W., et al., Experientia 29, 1032 (1973) and by Dorer, F. E., et al., Biochim. Biophys. Acta 429, 220 (1976).
ACE activity assay. For most experiments described herein, the enzyme was assayed in 0.05 M Hepes buffer, pH 8.0 containing 0.1 M NaCl and 0.75 M Na2 SO4. […] Enzyme was diluted in the above buffer such that 40 μl buffered enzyme was capable of hydrolyzing 13% of substrate in a 15-minute incubation at 37° C. […]

Compound: C[C@H](NC(=O)[C@H](Cc1c[nH]c2ccccc12)NC(=O)[C@H](CCCCN)NC(=O)[C@@H]1CCC(=O)N1)C(=O)N1CCC[C@H]1C(=O)O [BPP5a, <GluLysTrpAlaPro] ([pGlu]KWAP-OH)
- Km relative to angiotensin I (competitive substrate) (ACE): lower Km than angiotensin I

Compound: C[C@H](CSC(=O)[C@H](Cc1ccccc1)NC(=O)[C@@H]1CCC(=O)N1)C(=O)N1CCC[C@H]1C(=O)O [Example 15, N^α - [3-(Pyro-L-glutamyl-L-phenylalanylthio)-2-D-methylpropanoyl]-L-proline]
- Blood pressure response to 400 ng/kg of Angiotensin I (angiotensin I [1]; 5 min): 66 % of Control
- Blood pressure response to 400 ng/kg of Angiotensin I (angiotensin I [1]; 15 min): 26 % of Control
- Blood pressure response to 400 ng/kg of Angiotensin I (angiotensin I [1]; 18 min): 26 % of Control
- Blood pressure response to 400 ng/kg of Angiotensin I (angiotensin I [1]; 21 min): 21 % of Control
- Blood pressure response to 400 ng/kg of Angiotensin I (angiotensin I [1]; 25 min): 21 % of Control
- Blood pressure response to 400 ng/kg of Angiotensin I (angiotensin I [1]; 29 min): 24 % of Control
- Blood pressure response to 400 ng/kg of Angiotensin I (angiotensin I [1]; 39 min): 18 % of Control
- Blood pressure response to 400 ng/kg of Angiotensin I (angiotensin I [1]; 44 min): 16 % of Control
- Blood pressure response to 400 ng/kg of Angiotensin I (angiotensin I [1]; 49 min): 16 % of Control
- Blood pressure response to 400 ng/kg of Angiotensin I (angiotensin I [1]; 54 min): 18 % of Control
- Blood pressure response to 400 ng/kg of Angiotensin I (angiotensin I [1]; 60 min): 18 % of Control
- Blood pressure response to 400 ng/kg of Angiotensin I (angiotensin I [1]; 74 min): 18 % of Control
- Blood pressure response to 400 ng/kg of Angiotensin I (angiotensin I [1]; 86 min): 21 % of Control
- Blood pressure response to 400 ng/kg of Angiotensin I (angiotensin I [1]; 110 min): 21 % of Control
- Blood pressure response to 400 ng/kg of Angiotensin I (angiotensin I [1]; 120 min): 26 % of Control
- Blood pressure response to 400 ng/kg of Angiotensin I (angiotensin I [1]; 132 min): 26 % of Control
- Blood pressure response to 400 ng/kg of Angiotensin I (angiotensin I [1]; 142 min): 26 % of Control
- Blood pressure response to 400 ng/kg of Angiotensin I (angiotensin I [1]; +1 min): 53 % of Control
- Blood pressure response to 400 ng/kg angiotensin I (angiotensin I [2]; 5 min): 18 % of control
- Blood pressure response to 400 ng/kg angiotensin I (angiotensin I [2]; 11 min): 21 % of control
- Blood pressure response to 400 ng/kg angiotensin I (angiotensin I [2]; 14 min): 24 % of control
- Blood pressure response to 400 ng/kg angiotensin I (angiotensin I [2]; 17 min): 29 % of control
- Blood pressure response to 400 ng/kg angiotensin I (angiotensin I [2]; 20 min): 34 % of control
- Blood pressure response to 400 ng/kg angiotensin I (angiotensin I [2]; 24 min): 42 % of control
- Blood pressure response to 400 ng/kg angiotensin I (angiotensin I [2]; 32 min): 47 % of control
- Blood pressure response to 400 ng/kg angiotensin I (angiotensin I [2]; 43 min): 53 % of control
- Blood pressure response to 400 ng/kg angiotensin I (angiotensin I [2]; 49 min): 58 % of control
- Blood pressure response to 400 ng/kg angiotensin I (angiotensin I [2]; 56 min): 61 % of control
- Blood pressure response to 400 ng/kg angiotensin I (angiotensin I [2]; 71 min): 71 % of control
- Blood pressure response to 400 ng/kg angiotensin I (angiotensin I [2]; 76 min): 68 % of control
- Blood pressure response to 400 ng/kg angiotensin I (angiotensin I [2]; 88 min): 76 % of control
- Blood pressure response to 400 ng/kg angiotensin I (angiotensin I [2]; 99 min): 76 % of control
- Blood pressure response to 400 ng/kg angiotensin I (angiotensin I [2]; 109 min): 74 % of control
- Blood pressure response to 400 ng/kg angiotensin I (angiotensin I [2]; 125 min): 84 % of control
- Blood pressure response to 400 ng/kg angiotensin I (angiotensin I [2]; +1/2 min (30 sec.)): 8 % of control

Compound: RPPGFSPFR [bradykinin]
- Km relative to angiotensin I (competitive substrate) (ACE): lower Km than angiotensin I

Compound: CC(C)C[C@H](NC(=O)[C@H](Cc1cnc[nH]1)NC(=O)CNC(=O)c1ccccc1)C(=O)O [Benzoyl-GlyHisLeu] (Bz-Gly-His-Leu-OH)
- Km (human urinary ACE): ~200 µM
